The values that follow come from patent publication US20230303495A9, “PYRIDINE OXYNITRIDE, PREPARATION METHOD THEREFOR AND USE THEREOF” (Orion Corporation, priority 2019, published 2023).

For one data set, the target named is T1, NaV1.8 (Homo sapiens, UniProt Q9Y5Y9).
T1 construct: expressed in transfected cells
Put plainly: Whole-cell patch clamp blocking activity against NaV1.8 channel current. The class given is cell-based. Conditions: for IC50: CHO cell line stably expressing Nav1.8 (SCN10A: NM_006514), patch clamp; for Blocking rate (%) @100 nM: against NaV1.8 at 100 nM, CHO cell line stably expressing Nav1.8, patch clamp. As to the method:
1. Test method: patch clamp technique was used to detect the influence of compounds on voltage-gated sodium channel (NaV) 1.1-1.8 subtype current
1) The specific information of the CHO cell line stably expressing the Nav1.8 channel was as follows: SCN10A: NM_006514
2) Cells were cultured in HAM'S/F-12 medium containing 10% fetal bovine serum and 10 μg/mL Blasticidin, 200 μg/mL Hygromycin B and 100 μg/mL Zeocin, culture temperature was 37° C. and the concentration of CO2 was 5%.
5) Patch clamp detection, before the experiment, the cells were separated with 0.25%—trypsin EDTA, inoculated into a 24 well plate with a density of 8*10^3 cells per well (final volume: 500 μL), tetracycline was added thereto, and experimental test was performed on the next day.
1) Extracellular fluid: 140 mM NaCl, 3.5 mM KCl, 2 mM CaCl2, 10 mM HEPES, 1.25 mM NaH2PO4, 1 mM MgCl2, 10 mM Glucose, pH=7.4 (NaOH).
2) Intracellular fluid: 50 mM CsCl, 10 mM NaCl, 10 mM HEPES, 20 mM EGTA, 60 mM CsF, pH=7.2 (CsOH).
The voltage stimulation scheme of whole-cell patch clamp recording of Nav channel current was as follows: first the membrane potential of the cell was clamped at −130 mV, and then the voltage was stepped to −40 mV or −20 mV at 10 mv step intervals for 8 s. The clamping voltage was maintained at −120 mV, and data was collected repeatedly every 20 seconds. The peak amplitude of its inward current was measured to determine its half-inactivation voltage.
The cell clamping potential was set at −120 mV. The resting and half-inactivation inhibition of sodium current was measured using double pulse mode. The double pulse mode was completed by two 0 mV depolarization test pulses (TP1 and TP2) lasting 50 ms. The conditional voltage between the two depolarization pulses was set near the half-inactivation voltage (lasting 8 s). […] The data acquisition was repeated at an interval of 20 s and the current peak was measured at the two test pulses.
When the current of the Nav channel recorded by the whole cell was stable, the drug was administered, after each drug concentration was applied for 5 minutes (or the current was stable), the next concentration would be tested, and multiple concentrations would be tested for each test compound. The cover glass covered with cells was placed in the recording bath of an inverted microscope, the test compound and the external liquid without compound flowed through the recording chambers in turns from low concentration to high concentration by gravity perfusion, so as to act on the cells, in the recording, the liquid exchange was carried out by vacuum pump. The current detected in each cell in the compound-free external fluid served as its own control group. Multiple cells were detected independently and repeatedly. All electrophysiological experiments were performed at room temperature.
First, the current after the action of each drug concentration and the blank control current were normalized, and then the blocking rate corresponding to each drug concentration was calculated. The mean and standard error were calculated for each concentration, and all the above values were calculated by Microsoft Excel 2013. In addition, the half-inhibitory concentration of each compound was calculated by IGOR software with the following equation: retardation rate=1/[1+(IC50/c)^h].
The dose-dependent effect was nonlinearly fitted with the above equation, wherein, c refers to the drug concentration, IC50 was the half inhibitory concentration, and h refers to the Hill coefficient. The curve fitting and the calculation of IC50 were completed by IGOR software (software version: 6.0.1.0).

A short description of data set [1]: In vivo pharmacokinetics of rat, single intravenous injection or oral administration by gavage. As to conditions: male, Sprague-Dawley, plasma; for Vd: read-out: VZ; for bioavailability: intragastric (gavage) 10 mg/kg vs intravenous 1 mg/kg. Also on record: species or system Male Sprague Dawley rats. Here is the method: In this experimental embodiment, the in vivo pharmacokinetics of rat was evaluated by a single intravenous injection or oral administration by gavage.
Experimental methods and conditions: Male Sprague Dawley rats, all animals were fasted overnight, and the test compound was given 1 mg/Kg (intravenous injection, solvent […]) and 10 mg/Kg (administrated by gavage) respectively, 5, 15, 30 min, 1, 2, 4, 6, 8 and 24 hr after administration, blood was collected through the submandibular vein, about 0.20 mL of each sample was collected, heparin sodium was used for anticoagulation, the samples were placed on ice after the collection, then centrifuged within 1 hour to separate the plasma for testing. The blood drug concentration in plasma was detected by liquid-phase tandem mass spectrometry (LC/MS/MS), and the pharmacokinetic parameters were calculated by the measured concentration.

[2] abbreviates: intravenous administration 1 mg/kg.
The mark [3] stands for this setting: po, intragastric (gavage) 10 mg/kg.

T1 sequence (Q9Y5Y9 whole entry): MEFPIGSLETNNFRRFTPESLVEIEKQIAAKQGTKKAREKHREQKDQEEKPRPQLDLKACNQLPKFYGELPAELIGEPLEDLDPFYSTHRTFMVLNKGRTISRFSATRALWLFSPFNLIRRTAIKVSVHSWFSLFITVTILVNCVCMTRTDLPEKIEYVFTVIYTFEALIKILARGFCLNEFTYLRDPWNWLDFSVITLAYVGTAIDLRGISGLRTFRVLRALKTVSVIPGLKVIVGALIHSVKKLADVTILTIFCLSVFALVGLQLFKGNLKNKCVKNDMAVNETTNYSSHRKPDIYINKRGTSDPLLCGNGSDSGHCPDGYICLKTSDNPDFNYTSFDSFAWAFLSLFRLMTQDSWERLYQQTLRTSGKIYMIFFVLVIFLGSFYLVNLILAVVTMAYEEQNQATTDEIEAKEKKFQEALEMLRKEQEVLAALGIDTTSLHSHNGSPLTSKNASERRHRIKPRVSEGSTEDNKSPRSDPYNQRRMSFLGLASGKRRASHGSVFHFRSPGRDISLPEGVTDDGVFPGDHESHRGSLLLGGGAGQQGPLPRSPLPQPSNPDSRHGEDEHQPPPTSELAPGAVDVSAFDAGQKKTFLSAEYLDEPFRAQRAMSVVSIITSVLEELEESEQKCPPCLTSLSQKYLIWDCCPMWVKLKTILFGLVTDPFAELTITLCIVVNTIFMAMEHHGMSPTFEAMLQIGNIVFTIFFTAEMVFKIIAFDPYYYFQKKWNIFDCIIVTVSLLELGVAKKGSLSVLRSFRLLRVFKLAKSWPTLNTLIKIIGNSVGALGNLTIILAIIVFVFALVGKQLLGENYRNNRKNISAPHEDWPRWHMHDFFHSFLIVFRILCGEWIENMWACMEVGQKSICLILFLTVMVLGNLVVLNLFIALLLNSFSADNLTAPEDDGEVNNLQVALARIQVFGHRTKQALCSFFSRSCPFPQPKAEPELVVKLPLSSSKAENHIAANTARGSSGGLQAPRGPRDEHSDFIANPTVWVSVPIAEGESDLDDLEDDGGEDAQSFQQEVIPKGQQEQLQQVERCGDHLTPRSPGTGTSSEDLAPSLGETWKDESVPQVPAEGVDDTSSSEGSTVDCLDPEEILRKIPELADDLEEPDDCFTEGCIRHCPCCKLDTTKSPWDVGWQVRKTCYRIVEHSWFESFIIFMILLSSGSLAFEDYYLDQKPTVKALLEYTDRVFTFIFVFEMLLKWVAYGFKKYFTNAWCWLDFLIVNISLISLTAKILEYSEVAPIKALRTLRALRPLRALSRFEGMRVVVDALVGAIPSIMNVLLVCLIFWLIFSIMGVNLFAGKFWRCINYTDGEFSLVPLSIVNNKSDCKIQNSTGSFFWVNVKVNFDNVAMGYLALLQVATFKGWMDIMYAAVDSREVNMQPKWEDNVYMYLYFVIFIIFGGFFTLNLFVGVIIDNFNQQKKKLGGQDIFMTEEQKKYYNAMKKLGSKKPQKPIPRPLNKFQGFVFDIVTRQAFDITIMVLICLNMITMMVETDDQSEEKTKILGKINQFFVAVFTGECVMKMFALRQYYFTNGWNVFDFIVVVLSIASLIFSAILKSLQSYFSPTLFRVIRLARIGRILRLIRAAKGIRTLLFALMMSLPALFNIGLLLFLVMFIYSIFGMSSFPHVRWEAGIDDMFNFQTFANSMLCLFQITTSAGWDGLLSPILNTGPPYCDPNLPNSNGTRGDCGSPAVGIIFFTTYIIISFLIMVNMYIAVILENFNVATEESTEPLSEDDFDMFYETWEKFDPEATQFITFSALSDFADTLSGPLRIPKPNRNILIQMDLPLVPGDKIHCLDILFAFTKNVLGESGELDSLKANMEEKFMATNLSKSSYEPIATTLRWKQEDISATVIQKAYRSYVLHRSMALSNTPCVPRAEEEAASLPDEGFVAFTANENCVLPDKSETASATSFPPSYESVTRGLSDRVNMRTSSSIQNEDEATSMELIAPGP

The compound `O=C(Nc1cc[n+]([O-])nc1)c1c(Oc2ccc(OC(F)(F)F)c(F)c2)ccc(C(F)(F)F)c1F` [Embodiment A56] displayed an IC50 on NaV1.8 of 3.7 nM. Also, in data set [1] (setting [2]), the AUC(0-inf) was determined as 9600 ng·h/mL, the clearance was 1.74 mL/min/kg, the half-life is 13.1 h and the Vd was 1.97 L/kg. In data set [1] (setting [3]), the AUC(0-inf) came out at 117000 ng·h/mL, the Cmax worked out at 3000 ng/mL and the half-life is 27.9 h. The bioavailability in data set [1] (po) was 68.2%.
In the case of `O=C(Nc1ccc[n+]([O-])c1)c1c(Oc2ccc(OC(F)(F)F)cc2)cc(C(F)(F)F)c(Cl)c1F` [Embodiment A68], on NaV1.8, the midpoint of inhibition, the IC50, lay at 0.27 nM and the “Blocking rate (%) @100 nM” value was 99.15%. Further, in data set [1] (setting [2]), the AUC(0-inf) amounted to 33300 ng·h/mL, the clearance is 0.5 mL/min/kg, the half-life is 5.24 h and the Vd stood at 0.228 L/kg. In data set [1] (setting [3]), this compound showed an AUC(0-inf) of 139000 ng·h/mL, a Cmax of 9700 ng/mL and a half-life of 5.72 h. This compound also returned a bioavailability in data set [1] (po) of 41.8%.
Consider `O=C(Nc1ccc[n+]([O-])c1)c1cc(Cl)c(C(F)(F)F)cc1Oc1ccc(OC(F)(F)F)cc1` [Embodiment A69], for which, at NaV1.8, the concentration for half-maximal inhibition (IC50) turned out to be 2 nM. For the same compound, in data set [1] (setting [2]), the AUC(0-inf) came to 56700 ng·h/mL, the clearance was 0.3 mL/min/kg, the half-life was 12.3 h and the Vd came to 0.312 L/kg. Besides, in data set [1] (setting [3]), the AUC(0-inf) was found to be 399000 ng·h/mL, the maximum concentration (Cmax) is 17100 ng/mL and the half-life is 12.2 h. The bioavailability in data set [1] (po) amounted to 70.4%.
Take `O=C(Nc1ccc[n+]([O-])c1)c1c(Oc2ccc(OC(F)(F)F)c(F)c2)cc(C(F)(F)F)c(Cl)c1F` [Embodiment A84]: on NaV1.8, the “Blocking rate (%) @100 nM” value was found to be 99.14%. Besides, in data set [1] (setting [2]), the AUC(0-inf) amounted to 18800 ng·h/mL, the clearance turned out to be 0.91 mL/min/kg, the half-life was 4.53 h and the Vd amounted to 0.355 L/kg. Further, in data set [1] (setting [3]), the AUC(0-inf) amounted to 67200 ng·h/mL, the highest level (Cmax) was 4920 ng/mL and the half-life is 5.75 h. Moreover, the bioavailability in data set [1] (po) amounted to 35.7%.
On to `Cc1cc(F)ccc1Oc1cc(C(F)(F)F)c(Cl)cc1C(=O)Nc1ccc[n+]([O-])c1` [Embodiment A103], for which the “Blocking rate (%) @100 nM” value at NaV1.8 was determined as 92.47%. Also, in data set [1] (setting [2]), the AUC(0-inf) was found to be 2760 ng·h/mL, the clearance was determined as 6.15 mL/min/kg, the half-life is 2.28 h and the Vd is 1.19 L/kg. Further, in data set [1] (setting [3]), the total exposure AUC(0-inf) is 14000 ng·h/mL, the Cmax turned out to be 1710 ng/mL and the half-life was 2.47 h. Also, the bioavailability in data set [1] (po) was found to be 50.7%.
